Results from US9458104B2 (priority 2012, dated 2016).

What was measured:
[1] = biological target: T1, RORγ (UniProt P51449); assay type: cell-based; conditions: 293T cells, 16 h; for pIC50 (FF): firefly (FF) luciferase; for pIC50 (REN): renilla normalised (RENnorm) luciferase
T1 construct: hRORg-LBD|aa259-518|NP_005051.2; hRORgt|aa1-497|NP_001001523 (RORg, t isoform, 497aa); mRORg-LBD|aa264-516|NP_035411
T1 sequence (P51449 1-518): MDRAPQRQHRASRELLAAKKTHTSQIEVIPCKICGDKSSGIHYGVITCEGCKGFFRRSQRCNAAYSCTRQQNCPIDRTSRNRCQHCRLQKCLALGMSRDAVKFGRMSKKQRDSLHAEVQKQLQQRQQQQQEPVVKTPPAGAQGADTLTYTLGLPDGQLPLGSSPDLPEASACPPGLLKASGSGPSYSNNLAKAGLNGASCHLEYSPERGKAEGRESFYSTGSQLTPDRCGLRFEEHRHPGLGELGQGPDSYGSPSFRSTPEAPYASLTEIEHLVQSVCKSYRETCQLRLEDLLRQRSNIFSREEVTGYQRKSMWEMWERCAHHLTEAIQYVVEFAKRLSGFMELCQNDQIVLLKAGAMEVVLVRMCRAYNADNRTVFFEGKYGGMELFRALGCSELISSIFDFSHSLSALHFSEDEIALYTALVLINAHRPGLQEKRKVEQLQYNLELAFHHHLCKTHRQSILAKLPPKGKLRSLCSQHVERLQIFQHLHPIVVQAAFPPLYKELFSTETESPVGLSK
Method: Determination of a ligand mediated Gal4 promoter driven transactivation to quantify ligand binding to RORγ was performed as follows: DNA encoding three different RORγ. protein fragments was cloned into vector pCMV-BD (Stratagene). Expression was under control of a CMV promoter and as fusion to the DNA-binding domain of the yeast protein GAL4. Other vectors used were pFR-Luc (Stratagene) as regulated reporter plasmid. pFR-Luc contains a synthetic promoter with five tandem repeats of the yeast GAL4 binding sites that control expression of the Photinus pyralis (American firefly) luciferase gene. In order to improve experimental accuracy the plasmid pRL-CMV was cotransfected. pRL-CMV contains the constitutive CMV promoter, controlling the expression of the Renilla reniformis luciferase.
All Gal4 reporter gene assays were done in 293T cells (DSMZ (German Collection of Microorganisms and Cell Cultures), Braunschweig, Germany, ACC635) grown in Minimum Essential Medium (MEM) with Phenol Red. The medium is supplemented with 10% fetal bovine serum, 0.1 mM nonessential amino acids, 1 mM sodium pyruvate, 1% Glutamax and 100 units Penicilin/[…] per mL at 37° C. in 5% CO2.
For the assay, […] were plated per well in 96 well plates in 100 μL per well, incubated over night at 37° C. in 5% CO2. The following day, medium was discarded and the cells were transiently transfected using 20 μL per well of a OptiMEM—PEI-based transfection-reagent (Sigma-Aldrich, 408727) including the three plasmids described above. About 4 h after addition of the transfection solution, fresh Minimal Essential Medium (MEM, same composition as used for plating cells, but without serum) was added. Then compound stocks, prediluted in MEM (same composition as used for plating cells) were added (final vehicle concentration not exceeding 0.1%).
All experiments were done at least in triplicates.
It is understood that the data illustrated below may have reasonable variation depending on the specific conditions and procedures used by the person conducting the test.

[2] = biological target: T2, RORγ ligand binding domain (LBD) (Homo sapiens, UniProt P51449); assay: TR-FRET Activity Assay (ligand sensing assay, RORγ-LBD / coactivator peptide interaction); assay type: biochemical
T2 construct: made in house; host or cells: E. coli BL-21 (BL3), vector pDEST15
T2 sequence (P51449 269-508 limits assumed): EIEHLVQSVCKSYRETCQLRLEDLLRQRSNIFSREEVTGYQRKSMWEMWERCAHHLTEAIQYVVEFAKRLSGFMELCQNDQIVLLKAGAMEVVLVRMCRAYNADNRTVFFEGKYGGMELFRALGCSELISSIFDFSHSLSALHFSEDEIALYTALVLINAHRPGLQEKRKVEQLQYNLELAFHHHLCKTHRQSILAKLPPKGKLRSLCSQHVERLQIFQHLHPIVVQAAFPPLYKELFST
Source text: This method measures the ability of putative ligands to modulate the interaction between the purified bacterial expressed RORγ ligand binding domain (LBD) and synthetic N-terminally biotinylated peptides which are derived from nuclear receptor coactivator proteins such as but not limited to SRC1 (NcoA1), SRC2 (NcoA2, TIF2), SRC3 (NcoA3), PGC1α, PGC1β, CBP, GRIP1, TRAP220, RIP140.
The ligand-binding domain (LBD) of RORγ was expressed as fusion protein with GST in […] cells using the vector pDEST15. Cells were lysed by lysozyme-treatment and sonication, and the fusion proteins purified over glutathione sepharose (Pharmacia) according to the manufacturers instructions. For screening of compounds for their influence on the RORγ-peptide interaction, the LANCE technology (Perkin Elmer) was applied. This method relies on the binding dependent energy transfer from a donor to an acceptor fluorophor attached to the binding partner of interest. For ease of handling and reduction of background from compound fluorescence LANCE technology makes use of generic fluorophore labels and time resolved detection assays were done in a final volume of 25 μL in a 384 well plate, in a Tris-based buffer system (20 mM Tris-HCl pH6.8; 60 mM KCl, 1 mM DTT; 5 mM MgCl2; 35 ng/μL BSA), containing 20-60 ng/well recombinantly expressed RORγ-LBD fused to GST, 200-600 nM N-terminally biotinylated peptide, 200 ng/well Streptavidin-xIAPC conjugate (Prozyme) and 6-10 ng/well Eu W1024-antiGST (Perkin Elmer). DMSO content of the samples was kept at 1%.
After generation of the Tris-based buffer system, the potentially RORγ modulating ligands were diluted. […] The LANCE signal was detected by a Perkin Elmer EnVision™ Multilabel Counter. The results were visualized by plotting the ratio between the emitted light at 665 nm and 615 nm. […] Ligands that promote the complex formation induce a concentration-dependent increase in time-resolved fluorescent signal.
To assess the antagonistic potential of the compounds, IC50 values were determined using a Ligand Sensing Assay based on Time-resolved Fluorescence Energy Transfer (TR-FRET) as described above. The normalised TR-FRET assay values, using the following equation: 1000*665 nm measurement value/615 nm measurement value, were transferred to the program GraphPad Prism to generate graphs and dose response curves using the following equation: […]
This is identical to the “four parameter logistic equation”. The IC50 values are calculated using this equation. […] Is is understood that the data illustrated below may have reasonable variation depending on the specific conditions and procedures used by the person conducting the test.

Compound | pIC50 (FF) [1] | pIC50 (REN) [1] | IC50 [2] [nM]
Cn1c(C(=O)N[C@H]2CC[C@H](C(=O)O)CC2)cc(-c2cc(C(C)(C)C)cc(C3(C)CC3)c2)c1CC1CCCCC1 [8/11] | 7.3 | 7.4 | 1260
Cn1c(C(=O)NC23CCC(C(=O)O)(CC2)C3)cc(-c2cc(C(C)(C)C)cc(C3(C)CC3)c2)c1CC1CCCCC1 [8/12] | 7.7 | 7.8 | 1000
Cn1c(C(=O)NCC(C)(C)C(=O)O)cc(-c2cc(C(C)(C)C)cc(C3(C)CC3)c2)c1CC1CCCCC1 [8/13] | 7.4 | 7.6 | 2510
Cn1c(C(=O)NC23CCC(C(=O)O)(CC2)CC3)cc(-c2cc(C(C)(C)C)cc(C3(C)CC3)c2)c1CC1CCCCC1 [8/14] | 7.4 | 7.6 | 2000
Cn1c(C(=O)N2CC(C(C)(C)C(=O)O)C2)cc(-c2cc(C(C)(C)C)cc(C3(C)CC3)c2)c1CC1CCCCC1 [8/15] | 7.2 | 7.4 | 2000
Cn1c(C(=O)N2CCC(C)(C(=O)O)CC2)cc(-c2cc(C(C)(C)C)cc(C3(C)CC3)c2)c1CC1CCCCC1 [8/16] | 7.5 | 7.6 | 1580
C[C@H](NC(=O)c1cc(-c2cc(C(=O)N[C@H]3C[C@H](C(=O)O)C3)n(C)c2CC2CCCCC2)cc(C2(C)CC2)c1)C(F)(F)F [8/17] | 7.7 | 7.9 | 1000
Cn1c(C(=O)N[C@H]2C[C@H](C(=O)O)C2)cc(-c2cc(C(C)(C)C)nc(C3(C)CC3)n2)c1CC1CCCCC1 [8/18] | 6.7 | 6.7 | 794
Cn1c(C(=O)N[C@H]2C[C@H](C(=O)O)C2)cc(-c2cc(C(C)(C)C)nc(C(C)(C)C)n2)c1CC1CCCCC1 [8/19] | 6.8 | 6.8 | 794
Cn1c(C(=O)NC2CCOCC2)cc(CC2CCCCC2)c1-c1cc(C(C)(C)C)cc(C2(C)CC2)c1 [19/2] | 6.9 | 6.9 | 501
CC(C)(C)c1cc(-c2cc(C(=O)NC3CCOCC3)nn2CC2CCCCC2)cc(C2(C)CC2)c1 [100/1] | 7.3 | 7.4 | 79.4
CC(C)(C)NS(=O)(=O)c1ccc(-c2cc(C(=O)NC3CCOCC3)nn2CC2CCCCC2)cc1C(C)(C)C [100/2] | 7.3 | 7.4 | 794
CC(C)(C)NS(=O)(=O)c1ccc(-c2cc(C(=O)N[C@H]3C[C@H](C(=O)O)C3)nn2CC2CCCCC2)cc1C(C)(C)C [100/3] | 7.0 | 7.1 | 794
CC(C)(C)NS(=O)(=O)c1ccc(-c2cc(C(=O)NCCC(C)(C)C(=O)O)nn2CC2CCCCC2)cc1C(C)(C)C [100/4] | 6.6 | 6.7 | 2000
CC(C)(C)NS(=O)(=O)c1ccc(-c2cc(C(=O)NC3CCOCC3)nn2CC2CCCCC2)cc1C(F)(F)F [100/5] | 7.1 | 7.2 | 501
CC(C)(C)NS(=O)(=O)c1ccc(-c2cc(C(=O)N[C@H]3C[C@H](C(=O)O)C3)nn2CC2CCCCC2)cc1C(F)(F)F [100/6] | 6.3 | 6.3 | 316
CC(C)(C)NS(=O)(=O)c1ccc(-c2cc(C(=O)NCCC(C)(C)C(=O)O)nn2CC2CCCCC2)cc1C(F)(F)F [100/7] | 6.2 | 6.3 | 1260
CC(C)NC(=O)c1cc(CC2CCCCC2)n(-c2cc(C(C)(C)C)cc(C(C)(C)C)c2)n1 [102/2] | < 4.7 | < 4.7 | 631
Cc1cc(-n2nc(C(=O)NC3CC3)cc2CC2CCCCC2)cc(C(C)(C)C)c1 [102/3] | 5.7 | 6.1 | 3160
CC(C)(C)c1cc(-n2nc(C(=O)NC3CCOCC3)c(Cl)c2CC2CCCCC2)cc(C(C)(C)C)c1 [103/2] | 6.3 | 6.4 | 316
CC(C)(O)CNC(=O)c1nn(-c2cc(C(C)(C)C)cc(C(C)(C)C)c2)c(CC2CCCCC2)c1Cl [103/5] | 6.2 | 6.3 | 316
CC(C)(C)c1cc(-n2nc(C(=O)NCc3ccno3)c(Cl)c2CC2CCCCC2)cc(C(C)(C)C)c1 [103/6] | 6.1 | 6.2 | 631
CC(C)(C)c1cc(-n2nc(C(=O)NCc3cnco3)c(Cl)c2CC2CCCCC2)cc(C(C)(C)C)c1 [103/7] | 6.3 | 6.3 | 251
CC(C)(C)c1cc(-n2nc(C(=O)NCc3ccn[nH]3)c(Cl)c2CC2CCCCC2)cc(C(C)(C)C)c1 [103/8] | < 4.7 | < 4.7 | 794
COC(C)(C)c1cc(-n2nc(C(=O)NC3COC3)c(Cl)c2CC2CCCCC2)cc(C(C)(C)C)c1 [104/4] | 6.6 | 6.6 | 631
CC(C)(C)NS(=O)(=O)c1ccc(-c2cc(C(=O)NC34CCC(C(=O)O)(CC3)CC4)nn2CC2CCCCC2)c(Cl)c1Cl [112/2] | 6.9 | 7.0 | 794
Cc1c(C(=O)NC2CCOCC2)cc(-c2ccc(S(=O)(=O)NC(C)(C)C)c(C(F)(F)F)c2)n1CC(C)(C)C [302/2] | 6.1 | 6.1 | 5010
Cc1c(C(=O)NC2CCOCC2)cc(-c2ccc(S(=O)(=O)NC(C)(C)C)c(C(F)(F)F)c2)n1CC1COC1 [302/3] | 6.3 | 6.2 | 15800
